Laboratory results published in PubChem BioAssay AID2060489 (Molecular Pharmacology Branch, DTP, NCI, 2025).
Each block holds one molecule with its values, some of them ahead of it.

Tested on: 922993-354-T-J3-PDC complex spheroids, viability
Experiment: Anticancer human tumor 922993-354-T-J3-PDC patient-derived endometrial carcinoma cell line growth inhibition [GQUAD]
Conditions: for IC50: curve of first compound; for viability, T/C: stronger effect = lower value
Excerpt: DNA G-quadruplex Stabilizer Agents in Combinations in Complex Spheroids
A high-throughput screen of multi-cell type tumor spheroids was designed to identify active combinations of DNA G-quadruplex stabilizer agents and targeted small molecules. Complex spheroids include a stromal component modeled by human endothelial cells (HUVEC) and fibroblasts modeled by human mesenchymal stem cells (MSCs). The concentration ranges selected for each drug and investigational agent were based upon clinically achievable concentrations if the clinical Cmax of the agent was known.
Compounds. The drugs and investigational agents: pidnarulex (CX-5461; NSC782164), APTO-253 (NSC789042), BRACO-19 (NSC847499), peposertib (NSC802822), ceralasertib (NSC780249), elimusertib (NSC800525), camonsertib (NSC841442), AZD-1390 (NSC803789), olaparib (NSC753686), talazoparib (NSC767125), ART-558 (NSC835418), sotorasib (NSC818433), MRTX-1133 (NSC836407), SN-38 (NSC673596), topotecan (NSC609699), etoposide (NSC141540), doxorubicin (NSC123127), gemcitabine (NSC613327), 5-fluorouracil (NSC19893), paclitaxel (NSC125973), vemurafenib (NSC761431), panobinostat (NSC761190), R-306465 (JNJ-16241199; NSC773264), adavosertib (NSC754352), TP-3654 (NSC805149), carboplatin (NSC241240), KSQ-4279 (NSC840948), and staurosporine (NSC755774) were obtained from the National Cancer Institute (NCI) Developmental Therapeutics Program Chemical Repository (34). The FDA-approved anticancer drug set is available from the NCI Developmental Therapeutics Program. […] The stock solutions were prepared in dimethyl sulfoxide (DMSO, Sigma-Aldrich, St. Louis, MO, cat. D2650) at 800-fold the tested concentration and stored at -70 degrees C prior to their use. All drugs and investigational agents were tested over a range starting from a high concentration at or near the clinical Cmax and decreasing in half-log increments. If the clinical Cmax for an agent had not been determined, the highest concentration tested was 10 microM.
2.3 Cell Culture. All cells were maintained in an incubator at 37 degrees C and 5% CO2 with 95% humidity. The PDC lines were cultured according to standard operating procedures established by the NCI PDMR. All PDCs were thawed and cultured in Matrigel-coated flasks prepared with a working solution of 1X Ham's F-12 nutrient mix, without supplementation (Invitrogen, cat. 11765054), 100 U/mL penicillin-streptomycin (Invitrogen, cat. 15140122), and 2.5% Matrigel (Corning Inc., cat. 354248) for the first three passages. The 857933-349-R-J2-PDC line was cultured in 6C/Colon 1B media, which includes advanced DMEM/F-12 (Thermo Fisher Scientific, cat. 12634028), 10 mM HEPES (Thermo Fisher Scientific, cat. 15630080), 1X GlutaMAX supplement (Thermo Fisher Scientific, cat. 35050061), 0.1 mg/mL primocin (InvivoGen, cat. ant-pm-2), 10% defined fetal bovine serum, heat inactivated (HyClone Laboratories Inc., cat. SH30070.03HI), 50% L-WRN conditioned media (ATCC, cat. CRL-3276), 1.25 mM N-Acetyl-L-cysteine (Sigma-Aldrich, cat. A9165), 10 mM nicotinamide (Sigma-Aldrich, cat. N0636), 1X B-27 supplement (Thermo Fisher Scientific, cat. 17504044), 1X N-2 supplement (Thermo Fisher Scientific, cat. 17502048), 10 microM Y-27632 dihydrochloride (Tocris Bioscience, cat. 1254), and 50 ng/mL human EGF recombinant protein (Thermo Fisher Scientific, cat. PHG0311). The 485176-168-R4-J1-PDC line was cultured in Panc media, which includes all 6C/Colon 1B media components plus 100 ng/mL human FGF-10 (Thermo Fisher Scientific, cat. 100-26), 500 nM SB-431542 (Selleckchem, cat. S1067), and gastrin (Tocris, cat. 3006).
[…]

[1] = second compound 0.0316 µM, first compound 0.0316 µM
[2] = second compound 0.0316 µM, first compound 0.1 µM
[3] = second compound 0.0316 µM, first compound 0.316 µM
[4] = second compound 0.0316 µM, first compound 1 µM
[5] = second compound 0.0316 µM, first compound 3.16 µM
[6] = second compound 0.0316 µM, first compound 10 µM
[7] = second compound 0.1 µM, first compound 0.0316 µM
[8] = second compound 0.1 µM, first compound 0.1 µM
[9] = second compound 0.1 µM, first compound 0.316 µM
[10] = second compound 0.1 µM, first compound 1 µM
[11] = second compound 0.1 µM, first compound 3.16 µM
[12] = second compound 0.1 µM, first compound 10 µM
[13] = second compound 0.316 µM, first compound 0.0316 µM
[14] = second compound 0.316 µM, first compound 0.1 µM
[15] = second compound 0.316 µM, first compound 0.316 µM
[16] = second compound 0.316 µM, first compound 1 µM
[17] = second compound 0.316 µM, first compound 3.16 µM
[18] = second compound 0.316 µM, first compound 10 µM
[19] = second compound 1 µM, first compound 0.0316 µM
[20] = second compound 1 µM, first compound 0.1 µM
[21] = second compound 1 µM, first compound 0.316 µM
[22] = second compound 1 µM, first compound 1 µM
[23] = second compound 1 µM, first compound 3.16 µM
[24] = second compound 1 µM, first compound 10 µM
[25] = second compound 3.16 µM, first compound 0.0316 µM
[26] = second compound 3.16 µM, first compound 0.1 µM
[27] = second compound 3.16 µM, first compound 0.316 µM
[28] = second compound 3.16 µM, first compound 1 µM
[29] = second compound 3.16 µM, first compound 3.16 µM
[30] = second compound 3.16 µM, first compound 10 µM
[31] = second compound 10 µM, first compound 0.0316 µM
[32] = second compound 10 µM, first compound 0.1 µM
[33] = second compound 10 µM, first compound 0.316 µM
[34] = second compound 10 µM, first compound 1 µM
[35] = second compound 10 µM, first compound 3.16 µM
[36] = second compound 10 µM, first compound 10 µM
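Further: spheroids exposed to compounds for seven days.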
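Wherever viability, T/C is given: 100% = DMSO vehicle control viability.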

SMILES: C#Cc1c(F)ccc2cc(O)cc(-c3ncc4c(N5CC6CCC(C5)N6)nc(OCC56CCCN5CC(F)C6)nc4c3F)c12 (centres undefined) + CN(C)c1ccc(Nc2c3ccc(NC(=O)CCN4CCCC4)cc3nc3cc(NC(=O)CCN4CCCC4)ccc23)cc1
IC50 (second compound 0.0316 µM): > 10000 nM
IC50 (second compound 0.1 µM): > 10000 nM
IC50 (second compound 0.316 µM): > 10000 nM
IC50 (second compound 1 µM): > 10000 nM
IC50 (second compound 3.16 µM): > 10000 nM
IC50 (second compound 10 µM): > 10000 nM
viability, T/C [1]: 93.8%
viability, T/C [2]: 78.5%
viability, T/C [3]: 97.2%
viability, T/C [4]: 86.9%
viability, T/C [5]: 95.3%
viability, T/C [6]: 81.5%
viability, T/C [7]: 99.4%
viability, T/C [8]: 89.3%
viability, T/C [9]: 94.3%
viability, T/C [10]: 100%
viability, T/C [11]: 82.3%
viability, T/C [12]: 95.9%
viability, T/C [13]: 71.9%
viability, T/C [14]: 97.4%
viability, T/C [15]: 97.7%
viability, T/C [16]: 81%
viability, T/C [17]: 87%
viability, T/C [18]: 76%
viability, T/C [19]: 71.4%
viability, T/C [20]: 86.9%
viability, T/C [21]: 88.7%
viability, T/C [22]: 85.4%
viability, T/C [23]: 84%
viability, T/C [24]: 88.1%
viability, T/C [25]: 116%
viability, T/C [26]: 102%
viability, T/C [27]: 129%
viability, T/C [28]: 100%
viability, T/C [29]: 108%
viability, T/C [30]: 92.8%
viability, T/C [31]: 88.3%
viability, T/C [32]: 133%
viability, T/C [33]: 108%
viability, T/C [34]: 133%
viability, T/C [35]: 104%
viability, T/C [36]: 94.6%

IC50 (second compound 0.0316 µM): 2610 nM
IC50 (second compound 0.1 µM): 1060 nM
IC50 (second compound 0.316 µM): < 31.6 nM
IC50 (second compound 1 µM): < 31.6 nM
IC50 (second compound 3.16 µM): 828 nM
IC50 (second compound 10 µM): < 31.6 nM
SMILES: C=CCn1c(=O)c2cnc(Nc3ccc(N4CCN(C)CC4)cc3)nc2n1-c1cccc(C(C)(C)O)n1 + Cc1cnc(CNC(=O)c2c(=O)c3ccc(N4CCCN(C)CC4)nc3n3c2sc2ccccc23)cn1
viability, T/C [1]: 92.1%
viability, T/C [2]: 70.7%
viability, T/C [3]: 81.6%
viability, T/C [4]: 78.6%
viability, T/C [5]: 44.3%
viability, T/C [6]: 28.4%
viability, T/C [7]: 69.1%
viability, T/C [8]: 60%
viability, T/C [9]: 55.6%
viability, T/C [10]: 51.5%
viability, T/C [11]: 23.1%
viability, T/C [12]: 25%
viability, T/C [13]: 50.9%
viability, T/C [14]: 42%
viability, T/C [15]: 32.1%
viability, T/C [16]: 36.4%
viability, T/C [17]: 41.3%
viability, T/C [18]: 33.8%
viability, T/C [19]: 42.8%
viability, T/C [20]: 49.4%
viability, T/C [21]: 39.2%
viability, T/C [22]: 39.4%
viability, T/C [23]: 47.5%
viability, T/C [24]: 44.1%
viability, T/C [25]: 56%
viability, T/C [26]: 49.9%
viability, T/C [27]: 49.5%
viability, T/C [28]: 41.4%
viability, T/C [29]: 50.5%
viability, T/C [30]: 53.8%
viability, T/C [31]: 47.7%
viability, T/C [32]: 36%
viability, T/C [33]: 45.7%
viability, T/C [34]: 40.8%
viability, T/C [35]: 40.9%
viability, T/C [36]: 39.1%
